Measurements as given in ChEMBL document CHEMBL5131382, “Facile and divergent optimization of chromazonarol enabled the identification of simplified drimane meroterpenoids as novel pharmaceutical leads” (Eur J Med Chem, 2022).

Key:
Fusarium graminearum = assay: Antifungal activity against Fusarium graminearum at 150 uM; type: functional
Pyricularia oryzae = assay: Antifungal activity against Pyricularia oryzae at 150 uM; type: functional
Rhizoctonia solani [1] = assay: Antifungal activity against Rhizoctonia solani at 150 uM; type: functional
Phytophthora capsici = assay: Antifungal activity against Phytophthora capsici at 150 uM; type: functional
HepG2 = assay: Antiproliferative activity against human HepG2 cells assessed as inhibition of cell proliferation incubated for 72 hrs by MTT assay; type: functional, cell-based; settings: HepG2, 72 h
Sclerotinia sclerotiorum [2] = assay: Antifungal activity against Sclerotinia sclerotiorum at 150 uM; type: functional
Sclerotinia sclerotiorum [3] = assay: Antifungal activity against Sclerotinia sclerotiorum; type: functional, organism-based
MCF7 = assay: Antiproliferative activity against human MCF7 cells assessed as inhibition of cell proliferation incubated for 72 hrs by MTT assay; type: functional, cell-based; settings: MCF7, 72 h
Rhizoctonia solani [4] = assay: Antifungal activity against Rhizoctonia solani; type: functional, organism-based

Cc1cc(O)c(C[C@@H]2[C@@]3(C)CCCC(C)(C)[C@@H]3CC[C@@]2(C)O)c(O)c1 [ALBACONOL]
inhibition at 150 µM (Fusarium graminearum): 43% | inhibition at 150 µM (Pyricularia oryzae): 7% | inhibition at 150 µM (Rhizoctonia solani [1]): 49% | inhibition at 150 µM (Phytophthora capsici): 30% | EC50 (HepG2): 10.4 µM | inhibition at 150 µM (Sclerotinia sclerotiorum [2]): 72% | EC50 (Sclerotinia sclerotiorum [3]): 24.4 µM | EC50 (MCF7): 10.1 µM | EC50 (Rhizoctonia solani [4]): > 150 µM
